The values that follow are results of earlier work, collected in patent publication US20090203732A1, “Thiazolones for Use as P13 Kinase Inhibitors” (priority 2006, published 2009).

Like-named read-outs stand apart in the source and are kept apart here.

For one data set, the target named is CK2 protein kinase (Homo sapiens, UniProt P68400).
Chain of CK2 protein kinase (P68400 whole entry): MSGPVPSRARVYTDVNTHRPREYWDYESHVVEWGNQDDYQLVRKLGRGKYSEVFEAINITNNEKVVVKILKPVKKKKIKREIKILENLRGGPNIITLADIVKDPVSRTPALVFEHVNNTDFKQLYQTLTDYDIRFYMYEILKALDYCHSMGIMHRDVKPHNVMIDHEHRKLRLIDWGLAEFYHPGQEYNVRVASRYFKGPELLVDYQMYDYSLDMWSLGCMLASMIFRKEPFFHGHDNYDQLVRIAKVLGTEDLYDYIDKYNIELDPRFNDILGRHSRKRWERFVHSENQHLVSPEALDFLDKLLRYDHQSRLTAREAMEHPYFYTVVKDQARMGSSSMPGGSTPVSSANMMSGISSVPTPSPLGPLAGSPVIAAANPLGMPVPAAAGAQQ

`O=c1cc(N2CCOCC2)oc2c(-c3ccccc3)cccc12` [LY294002]: the IC50 is 5 to 10 µM at CK2 protein kinase and 15 to 20 µM in the data set on Class I PI3-kinases (each of the Class I PI3-kinases, Fruman et al. 1998, read-out: IC50 against each of these PI3-kinases).
As for `COC[C@H]1OC(=O)c2coc3c2[C@@]1(C)C1=C(C3=O)[C@@H]2CCC(=O)[C@@]2(C)C[C@H]1OC(C)=O` [wortmannin], the IC50 in the data set on Class I PI3-kinases (each of the four members of Class I PI3-kinases, read-out: IC50 against each of the various Class I PI3-kinases) was 0.001 to 0.01 µM.

As usually defined, the IC50 is the concentration at which inhibition is half-maximal.
